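Dose response: 5 concentrations. Exposure: 48 h. Format: 96-well plates. Endpoint: linear interpolation; highest concentration if not reached. Here, GI50 denotes the concentration required for 50% inhibition of growth. TGI marks complete inhibition of growth.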 Square brackets hold non-standard residues; d marks the D form. Peptide text beside a SMILES is read from it. * marks the point of attachment. ξ: configuration not given here. Boc = CC(C)(C)OC(=O)*; ξV = CC(C)C(N)C(=O)O; OBn = c1ccc(CO*)cc1
Assays:
Test in all cases: inhibition of tumour cell growth, NCI panel, 48 h
SK-MEL-28 melanoma = tested on: SK-MEL-28 melanoma
SR leukemia = tested on: SR leukemia
HCT-116 colon = tested on: HCT-116 colon
IGROV1 ovarian = tested on: IGROV1 ovarian
PC-3 prostate = tested on: PC-3 prostate
SN12C renal = tested on: SN12C renal
A549 NSCLC = tested on: A549 NSCLC
OVCAR-3 ovarian = tested on: OVCAR-3 ovarian
HS 578T breast = tested on: HS 578T breast
MALME-3M melanoma = tested on: MALME-3M melanoma
786-0 renal = tested on: 786-0 renal
MDA-MB-435 = tested on: MDA-MB-435
NCI-H23 lung = tested on: NCI-H23 lung
K-562 leukemia = tested on: K-562 leukemia
OVCAR-5 ovarian = tested on: OVCAR-5 ovarian
HOP-92 NSCLC = tested on: HOP-92 NSCLC
CCRF-CEM leukemia = tested on: CCRF-CEM leukemia
HOP-62 NSCLC = tested on: HOP-62 NSCLC
UACC-62 melanoma = tested on: UACC-62 melanoma
COLO 205 colon = tested on: COLO 205 colon
TK-10 renal = tested on: TK-10 renal
SNB-19 CNS = tested on: SNB-19 CNS
HCT-15 colon = tested on: HCT-15 colon
SF-539 CNS = tested on: SF-539 CNS
DU-145 prostate = tested on: DU-145 prostate
CAKI-1 renal = tested on: CAKI-1 renal
SK-OV-3 ovarian = tested on: SK-OV-3 ovarian
ACHN renal = tested on: ACHN renal
MDA-MB-231 breast = tested on: MDA-MB-231 breast
MCF7 breast = tested on: MCF7 breast
HCC-2998 colon = tested on: HCC-2998 colon
RXF 393 renal = tested on: RXF 393 renal
UACC-257 melanoma = tested on: UACC-257 melanoma
OVCAR-8 ovarian = tested on: OVCAR-8 ovarian
MOLT-4 leukemia = tested on: MOLT-4 leukemia
LOX IMVI melanoma = tested on: LOX IMVI melanoma
BT-549 breast = tested on: BT-549 breast
NCI-H226 lung = tested on: NCI-H226 lung
KM12 colon = tested on: KM12 colon
OVCAR-4 ovarian = tested on: OVCAR-4 ovarian
HL-60(TB) leukemia = tested on: HL-60(TB) leukemia
NCI-H522 lung = tested on: NCI-H522 lung
SF-268 CNS = tested on: SF-268 CNS
NCI/ADR-RES ovarian = tested on: NCI/ADR-RES ovarian
SK-MEL-2 melanoma = tested on: SK-MEL-2 melanoma
U251 CNS = tested on: U251 CNS
A498 renal = tested on: A498 renal
M14 melanoma = tested on: M14 melanoma
EKVX NSCLC = tested on: EKVX NSCLC
RPMI-8226 leukemia = tested on: RPMI-8226 leukemia
SK-MEL-5 melanoma = tested on: SK-MEL-5 melanoma
T-47D breast = tested on: T-47D breast

Structure (SMILES): COc1cc(-c2ccc3cc(OC)c(OC)c(OC)c3c2)cc(OC)c1OC
- GI50 (SK-MEL-28 melanoma): > 100000 nM
- TGI (SK-MEL-28 melanoma): > 100000 nM
- GI50 (SR leukemia): 5.19 µM
- TGI (SR leukemia): > 100 µM
- GI50 (HCT-116 colon): 11.9 µM
- TGI (HCT-116 colon): > 100 µM
- GI50 (IGROV1 ovarian): 40.4 µM
- TGI (IGROV1 ovarian): > 100 µM
- GI50 (PC-3 prostate): 5.81 µM
- TGI (PC-3 prostate): > 100 µM
- GI50 (SN12C renal): > 100 µM
- TGI (SN12C renal): > 100 µM
- GI50 (A549 NSCLC): 7.66 µM
- TGI (A549 NSCLC): > 100 µM
- GI50 (OVCAR-3 ovarian): > 100000 nM
- TGI (OVCAR-3 ovarian): > 100000 nM
- GI50 (HS 578T breast): 15.4 µM
- TGI (HS 578T breast): > 100 µM
- GI50 (MALME-3M melanoma): 8.75 µM
- TGI (MALME-3M melanoma): > 100000 nM
- GI50 (786-0 renal): 20.9 µM
- TGI (786-0 renal): > 100 µM
- GI50 (MDA-MB-435): 2800 nM
- TGI (MDA-MB-435): > 100000 nM
- GI50 (NCI-H23 lung): > 100000 nM
- TGI (NCI-H23 lung): > 100000 nM
- GI50 (K-562 leukemia): 5070 nM
- TGI (K-562 leukemia): > 100 µM
- GI50 (OVCAR-5 ovarian): > 100000 nM
- TGI (OVCAR-5 ovarian): > 100000 nM
- GI50 (HOP-92 NSCLC): 2170 nM
- TGI (HOP-92 NSCLC): 14.1 µM
- GI50 (CCRF-CEM leukemia): > 100000 nM
- TGI (CCRF-CEM leukemia): > 100000 nM
- GI50 (HOP-62 NSCLC): 16.1 µM
- TGI (HOP-62 NSCLC): 75.4 µM
- GI50 (UACC-62 melanoma): 29.6 µM
- TGI (UACC-62 melanoma): > 100000 nM
- GI50 (COLO 205 colon): > 100000 nM
- TGI (COLO 205 colon): > 100000 nM
- GI50 (TK-10 renal): 27.9 µM
- TGI (TK-10 renal): 84.3 µM
- GI50 (SNB-19 CNS): 75.1 µM
- TGI (SNB-19 CNS): > 100 µM
- GI50 (HCT-15 colon): 6.03 µM
- TGI (HCT-15 colon): > 100000 nM
- GI50 (SF-539 CNS): 23.6 µM
- TGI (SF-539 CNS): > 100000 nM
- GI50 (DU-145 prostate): > 100000 nM
- TGI (DU-145 prostate): > 100000 nM
- GI50 (CAKI-1 renal): > 100000 nM
- TGI (CAKI-1 renal): > 100000 nM
- GI50 (SK-OV-3 ovarian): 34.4 µM
- TGI (SK-OV-3 ovarian): > 100000 nM
- GI50 (ACHN renal): 40.2 µM
- TGI (ACHN renal): > 100 µM
- GI50 (MDA-MB-231 breast): 8.91 µM
- TGI (MDA-MB-231 breast): > 100000 nM
- GI50 (MCF7 breast): > 100000 nM
- TGI (MCF7 breast): > 100000 nM
- GI50 (HCC-2998 colon): > 100000 nM
- TGI (HCC-2998 colon): > 100000 nM
- GI50 (RXF 393 renal): 5.91 µM
- TGI (RXF 393 renal): 44 µM
- GI50 (UACC-257 melanoma): > 100 µM
- TGI (UACC-257 melanoma): > 100 µM
- GI50 (OVCAR-8 ovarian): > 100000 nM
- TGI (OVCAR-8 ovarian): > 100 µM
- GI50 (MOLT-4 leukemia): > 100000 nM
- TGI (MOLT-4 leukemia): > 100000 nM
- GI50 (LOX IMVI melanoma): > 100000 nM
- TGI (LOX IMVI melanoma): > 100000 nM
- GI50 (BT-549 breast): 30.1 µM
- TGI (BT-549 breast): > 100000 nM
- GI50 (NCI-H226 lung): > 100 µM
- TGI (NCI-H226 lung): > 100 µM
- GI50 (KM12 colon): 5.93 µM
- TGI (KM12 colon): > 100 µM
- GI50 (OVCAR-4 ovarian): > 100000 nM
- TGI (OVCAR-4 ovarian): > 100000 nM
- GI50 (HL-60(TB) leukemia): > 100 µM
- TGI (HL-60(TB) leukemia): > 100 µM
- GI50 (NCI-H522 lung): 9.54 µM
- TGI (NCI-H522 lung): > 100000 nM
- GI50 (SF-268 CNS): 24 µM
- TGI (SF-268 CNS): > 100 µM
- GI50 (NCI/ADR-RES ovarian): 7.91 µM
- TGI (NCI/ADR-RES ovarian): > 100 µM
- GI50 (SK-MEL-2 melanoma): 16.6 µM
- TGI (SK-MEL-2 melanoma): > 100000 nM
- GI50 (U251 CNS): 15.7 µM
- TGI (U251 CNS): > 100 µM
- GI50 (A498 renal): 11.1 µM
- TGI (A498 renal): 91.8 µM
- GI50 (M14 melanoma): 9.52 µM
- TGI (M14 melanoma): > 100000 nM

Structure (SMILES): O=C1c2cc3c(cc2-c2c1c1ccc(F)cc1c(=O)n2C[C@H](O)[C@@H](O)[C@H](O)CO)OCO3
- GI50 (SK-MEL-28 melanoma): 195 nM
- TGI (SK-MEL-28 melanoma): 765 nM
- GI50 (IGROV1 ovarian): 0.302 µM
- TGI (IGROV1 ovarian): > 100 µM
- GI50 (PC-3 prostate): 0.205 µM
- TGI (PC-3 prostate): > 100 µM
- GI50 (A549 NSCLC): 0.226 µM
- TGI (A549 NSCLC): > 100 µM
- GI50 (OVCAR-3 ovarian): 98.9 nM
- TGI (OVCAR-3 ovarian): 476 nM
- GI50 (MALME-3M melanoma): 0.185 µM
- TGI (MALME-3M melanoma): 565 nM
- GI50 (MDA-MB-435): 112 nM
- TGI (MDA-MB-435): 279 nM
- GI50 (NCI-H23 lung): 46 nM
- TGI (NCI-H23 lung): 256 nM
- GI50 (K-562 leukemia): 64.5 nM
- TGI (K-562 leukemia): > 100 µM
- GI50 (OVCAR-5 ovarian): 222 nM
- TGI (OVCAR-5 ovarian): 782 nM
- GI50 (HOP-92 NSCLC): 180 nM
- TGI (HOP-92 NSCLC): 0.69 µM
- GI50 (CCRF-CEM leukemia): 34.4 nM
- TGI (CCRF-CEM leukemia): 2180 nM
- GI50 (HOP-62 NSCLC): 0.0324 µM
- TGI (HOP-62 NSCLC): 0.27 µM
- GI50 (UACC-62 melanoma): 0.025 µM
- TGI (UACC-62 melanoma): 123 nM
- GI50 (COLO 205 colon): 106 nM
- TGI (COLO 205 colon): 546 nM
- GI50 (TK-10 renal): 0.262 µM
- TGI (TK-10 renal): 0.858 µM
- GI50 (SNB-19 CNS): 0.0513 µM
- TGI (SNB-19 CNS): 3.01 µM
- GI50 (HCT-15 colon): 0.183 µM
- TGI (HCT-15 colon): 766 nM
- GI50 (SF-539 CNS): 0.0289 µM
- TGI (SF-539 CNS): 138 nM
- GI50 (DU-145 prostate): 51.3 nM
- TGI (DU-145 prostate): 1990 nM
- GI50 (CAKI-1 renal): 38.3 nM
- TGI (CAKI-1 renal): 371 nM
- GI50 (SK-OV-3 ovarian): 0.0324 µM
- TGI (SK-OV-3 ovarian): 220 nM
- GI50 (MDA-MB-231 breast): 0.325 µM
- TGI (MDA-MB-231 breast): 984 nM
- GI50 (MCF7 breast): 11.9 nM
- TGI (MCF7 breast): 151 nM
- GI50 (HCC-2998 colon): 140 nM
- TGI (HCC-2998 colon): 380 nM
- GI50 (RXF 393 renal): 0.162 µM
- TGI (RXF 393 renal): 0.432 µM
- GI50 (EKVX NSCLC): 308 nM
- TGI (EKVX NSCLC): 3.05 µM
- GI50 (RPMI-8226 leukemia): 422 nM
- TGI (RPMI-8226 leukemia): 4.18 µM
- GI50 (OVCAR-8 ovarian): 90.4 nM
- TGI (OVCAR-8 ovarian): > 100 µM
- GI50 (MOLT-4 leukemia): 33.4 nM
- TGI (MOLT-4 leukemia): 426 nM
- GI50 (LOX IMVI melanoma): 29.9 nM
- TGI (LOX IMVI melanoma): 137 nM
- GI50 (BT-549 breast): 0.0687 µM
- TGI (BT-549 breast): 492 nM
- GI50 (SK-MEL-5 melanoma): 56.8 nM
- TGI (SK-MEL-5 melanoma): 183 nM
- GI50 (OVCAR-4 ovarian): 185 nM
- TGI (OVCAR-4 ovarian): 874 nM
- GI50 (T-47D breast): 22.9 nM
- TGI (T-47D breast): 150 nM
- GI50 (NCI-H522 lung): 0.0167 µM
- TGI (NCI-H522 lung): 137 nM
- GI50 (SK-MEL-2 melanoma): 0.18 µM
- TGI (SK-MEL-2 melanoma): 375 nM
- GI50 (A498 renal): 0.12 µM
- TGI (A498 renal): 0.262 µM
- GI50 (M14 melanoma): 0.0443 µM
- TGI (M14 melanoma): 599 nM

Structure (SMILES): CC(C)C(NC(=O)CNC(=O)OC(C)(C)C)C(=O)OCc1ccccc1 (stereo not drawn) (Boc-Gly-[ξV]-OBn)
- GI50 (K-562 leukemia): 30.4 µg/mL
- GI50 (HL-60(TB) leukemia): 86.5 µg/mL
